Experimental findings from patent US6670448B2, “Peptide antagonists of zonulin and methods for use of the same” (University of Maryland, Baltimore, priority 1998, dated 2003) are described below.

No end group written: not given here.

In this test the test system is rabbit ileum. Kind of test: Peptide antagonists FZI/0 and FZI/1 on rabbit ileum in Ussing chambers, alone or before ZOT or zonulin. Type of test: cell-based. Here is the method:
Next, Ussing chamber assays were carried out using ileum from 2-3 kg adult male New Zealand white rabbits, which were sacrificed by cervical dislocation. A 20 cm segment of ileum was removed, rinsed free of the intestinal content, opened along the mesenteric border, and stripped of muscular and serosal layers. Eight sheets of mucosa so prepared were then mounted in lucite Ussing chambers (1.12 cm^2 opening), connected to a voltage clamp apparatus (EVC 4000 WPI, Saratosa, Fla.), and bathed with freshly prepared Ringer's solution comprising 53 mM NaCl, 5.0 mM KCl, 30.5 mM mannitol, 1.69 mM Na2HPO4, 0.3 mM NaH2PO4, 1.25 mM CaCl2, 1.1 mM MgCl2, and 25 mM NaHCO3. The bathing solution was maintained at 37° C. with water-jacketed reservoirs connected to a constant-temperature circulating pump and gassed with 95% O2/5% CO2.
100 μl of zonulin purified from rabbit intestine was added to the mucosal side. The potential difference (PD) was measured every 10 min, and the short-circuit current (Isc) and tissue resistance (Rt) were calculated as described by Fasano et al, supra. Because of tissue variability, data were calculated as ΔRt (Rt at time x)−(Rt at time 0).
Next, rabbit ileum mounted in Ussing chambers as described above, were exposed to 100 μg of FZI/0 (SEQ ID NO:15), 100 μg ofFZI/1 (SEQ ID NO:34), 1.0 μg of 6xHis-ZOT (obtained as described in Example 1), 1.0 μg of zonulini (obtained as described in Example 3), or 1.0 μg of zonulinh (obtained as described in Example 3) alone; or pre-exposed for 20 min to 100 μg of FZI/0 or FZI/1, at which time 1.0 μg of 6xHis-ZOT, 1.0 μg of zonulini, or 1.0 μg of zonulinh, was added. ΔRt was then calculated as described above.

Take “VGVLGRPG [FZI/1, second synthetic peptide with positions 8, 12 and 13 changed to the residues of zonulinb (Val, Gly, Arg)]”: where the note is “pre-exposure 20 min to 100 μg peptide, FIG. 8 shaded bar”, the “inhibitory effect on the action of ZOT, zonulini and zonulinh on Rt” value was “completely ablated”.

On to “GGVLVQPG [FZI/0, synthetic octapeptide corresponding to amino acid residues 8-15 of human fetal zonulini]”, for which, where the note is “100 μg peptide alone, not significant, FIG. 8 closed bar”, the “change in Rt as compared to the negative control, peptide alone” value is 0.5%. The “decrease of the effect of ZOT on Rt” value (pre-treatment 20 min with 100 μg peptide, then 1.0 μg 6xHis-ZOT, FIG. 8) amounted to 75%. For the same sequence, for the setting “pre-treatment 20 min with 100 μg peptide, then 1.0 μg zonulinh, FIG. 8”, the “decrease of the effect of zonulinh on Rt” value is 100%. The “decrease of the effect of zonulini on Rt” value (pre-treatment 20 min with 100 μg peptide, then 1.0 μg zonulini, FIG. 8) worked out at 97%.
